The values below come from publication PMC12074795, “Synthesis and biological evaluation of esterified anti-inflammatory drugs with ethylene glycol linkers: cytotoxicity, anti-inflammatory and antioxidant properties” (Royal Society Open Science, 2025).

Assay [1] concerns nitric oxide production by macrophages activated with Saccharomyces cerevisiae. Description: Inhibition of nitric oxide production by stimulated macrophages (Griess). It counts as cell-based, mouse. The protocol:
Second, the anti-inflammatory activity of these compounds at a maximum concentration of 0.22 mM was evaluated by assessing their ability to inhibit the synthesis of NO (figure 2).
Peritoneal macrophages were isolated from four eight-week-old, 25 g Wistar mice by intraperitoneal injection of 0.5 ml of 2% starch solution (inflammatory agent) to stimulate their production. Four days later, the animals were sacrificed, and 5 ml of phosphate buffered saline (PBS) buffer (0.1 M, pH 7.4) was injected into their peritoneal cavity with a syringe. After massage of the peritoneal cavity, the injected buffer was slowly aspirated through a small abdominal incision. The resulting solution containing macrophages was transferred to 15 ml Falcon tubes and kept in ice. The fluid obtained was then centrifuged (1620 g, 4°C and 10 min), and the supernatant was removed. The erythrocytes were removed by osmotic shock. The cells were suspended in 1 ml hypotonic 0.05 M NaCl solution for 1 min. Isotonicity was then restored by adding 1 ml of 0.25 M NaCl. The mixture was centrifuged (1620 g, 4°C and 10 min) and the resulting pellet was suspended in 2 ml of Dulbecco's modified eagle medium (DMEM) (containing 0.2% streptomycin and penicillin, 0.4 g l^−1 bovine serum albumin and 3.7 g l^−1 NaHCO3 in PBS and filtered with 0.22 µm Millipore filters).
In the 96-well plate, 150 µl of a cell suspension (10^4 cells per well) were distributed in different wells. In the test and positive control wells, 50 µl of Saccharomycces cerevisiae (250 µg ml^–1) was added to stimulate the production of pro-inflammatory cytokines. Meanwhile 50 µl of DMEM was added in the negative control wells. The microplate was incubated at 37°C (5% CO2) for 1 h, then 50 µl of solution of compounds or baicalin at different concentrations (0.241 × 10^–3, 2.23 × 10^–3, 22.4 × 10^–3, 220 × 10^–3 and 2410 × 10^–3 mM) were added to the test wells and 50 µl DMEM to the positive (cells activated with Saccharomyces cerevisiae) and negative (inactivated cells) control wells. After 3 h of incubation at 37°C (5% CO2), the cell supernatants were used for NO [41].
A total of 100 µl of the previously obtained cell supernatants were mixed with 100 µl of Griess reagent (1% sulphanylamide, 0.1% naphthyl ethylenediamine dihydrochloride in 2.5% v/v phosphoric acid). The mixture was incubated for 10 min at room temperature and the absorbance is read at 550 nm. The amount of nitrite was measured using the standard sodium […] curve. The percentage inhibition of nitric oxide synthesis was calculated using the following formula:
%inhibition=[(ODcontrol−ODassay/ODcontrol]×100).
For orientation: Griess reagent forms a coloured azo dye with nitrite.

A short description of assay [2]: DPPH radical scavenging test. It is filed as biochemical. The note with it: 517 nm, 30 min. The protocol:
(§1) The in vitro antioxidant ability of the compounds synthesized in this work was evaluated using three different assays, including (i) the ABTS radical cation reduction-decolorization test, which uses the technique of Khan et al. consisting of the reduction of the cation radical by an antioxidant through the discoloration measured by absorption at the wavelength of 734 nm; (ii) interaction with the stable free radical DPPH, based on Bassene’s method, in which the scavenging of DPPH radicals is carried out by a colorimetric method consisting of the reduction of the DPPH radical, determined by its absorption at a wavelength of 517 nm; and (iii) the FRAP test according to the protocol of Path Canada, based on the ability of a substance to reduce Fe^3+ ions to Fe^2+ ions, which, in the presence of 1,10-phenanthroline, form a red-orange complex whose optical density can be measured at 505 nm.
The DPPH radical trapping protocol is based on Bassene’s method, modified for colorimetric analysis. DPPH is a stable purple organic nitrogen radical that absorbs light at 517 nm. When an anti-free radical agent is present, DPPH is reduced to a stable yellow compound, indicated by a loss of colour between 470 and 517 nm. A 0.02% DPPH solution was made with ethanol and stored in a sealed jar in the dark. Stock solutions of the synthesized compounds were prepared by dissolving 100 mg of each in 1 ml of DMSO, and the final concentration of DMSO concentration in the first well was 0.5%. These stocks were then diluted to achieve concentrations (500, 250, 125, 62.5, 31.25, 15.625 and 7.8125)/Mi in mM (Mi: molecular weight of each synthetic compound). Each dilution (25 µl) was put to the wells and 75 µl of the DPPH solution (0.02%) were added. Optical densities were measured at 517 nm after 30 min of incubation in the dark. The negative control used DPPH alone, while the positive control used gallic acid treated with solutions of the synthesized compounds at final concentrations (50, 25, 12.5, 6.25, 3.125, 1.5625 and 0.78125)/Mi in mM. Synthesized compounds were also tested alone to assess fluorescence.
Assays were performed in duplicate, and results were averaged. Percentage inhibition (PI), reflecting the antioxidant activity related to the DPPH˙ radical scavenging effect, was calculated using the following formula:
(PI)=Acontrol−Atest/Acontrol×100,
where Acontrol = absorbance of the control sample and Atest = absorbance of the tested sample.
(§2) The percentages of scavenging or 50% reduction were calculated using gallic acid as a standard for 100% reduction. The concentration of radical scavengers needed to neutralize 50% of free radicals, referred to as SC50, was determined using GraphPad Prism 8.0.1 software (244).
For orientation: DPPH is a stable violet radical that fades when it is reduced.

A short description of assay [3]: Ferric reducing antioxidant power (FRAP) test. The note with it: 505 nm. It counts as biochemical. As to the method:
as §1
The Fe^3+ reduction test followed Path Canada’s protocol with some modifications, assessing the reduction of Fe^3+ ions to Fe^2+ ions, which form a red-orange complex with 1,10-phenanthroline, measurable at 505 nm. The colour intensity correlates with the amount of Fe^3+ reduced. Four solutions were prepared: 1.2 mg ml^−1 of Fe^3+ solution (1.2 mg FeCl3 in 1 ml distilled H2O), 0.2% ortho-phenanthroline solution (200 mg powder in 100 ml ethanol), 2 mg ml^−1 of gallic acid solution (2 mg gallic acid in 1 ml distilled H2O) as a positive control, stock and dilute solutions of the synthesized compounds (see §3.2.5.1). In a 96-well microplate, 180 µl distilled H2O was added to the first column and 100 µl to others for dilution. Each compound solution (20 µl at 10 mg ml^−1) was mixed with 25 µl Fe^3+ solution and incubated for 15 min in the dark at room temperature. Afterwards, 50 µl ortho-phenanthroline solution was added, followed by another 15 min incubation. Optical density was measured at 505 nm using a TECAN M200 plate reader. The positive control was treated similarly to the DPPH and ABTS assays.
as §2

Setting [4] is: Mus musculus, Macrophage, 3 h, peritoneal macrophages activated with Saccharomyces cerevisiae, 3 h incubation, Griess reagent, read-out: IC50 of NO inhibition assay.
Setting [5] is: Mus musculus, Macrophage, classified according to the IC50 values of table 1, read-out: anti-inflammatory activity (class by IC50 of NO inhibition).
Where [6] appears, read: peritoneal macrophages activated with Saccharomyces cerevisiae, 3 h incubation, Griess reagent, read-out: IC50 of NO inhibition assay.
The mark [7] stands for this setting: first replicate, read-out: DPPH SC50(1).
[8] abbreviates: mean of duplicate, read-out: DPPH mean SC50.
Where [9] appears, read: second replicate, read-out: DPPH SC50(2).
[10] abbreviates: first replicate, read-out: FRAP SC50(1).
Setting [11] is: second replicate, read-out: FRAP SC50(2).
The mark [12] stands for this setting: mean of duplicate, read-out: FRAP mean SC50.

Where two headings read alike, the source gives them in different places. Bounds are passed on as bounds.

`CC(C)Cc1ccc(C(C)C(=O)OCCOC(=O)C=Cc2ccccc2)cc1` (centres unmarked) [Compound 14, 2-((2-(4-isobutylphenyl)propanoyl)oxy)ethyl cinnamate]: the IC50 – broadly, the point on the concentration scale where inhibition reaches its midpoint – was at most 0.05 mM in assay [1] (setting [4]), under 1 mM in assay [1] (setting [5]) and 0.05 mM in assay [1] (setting [6]). The EC50 in assay [2] (setting [7]) turned out to be 6.64 mM; in assay [2] (setting [8]), 6.13 mM; in assay [2] (setting [9]), 6.68 mM; in assay [3] (setting [10]), 7.68 mM; in assay [3] (setting [11]), 7.27 mM.
`CC(C)Cc1ccc(C(C)C(=O)OCCO)cc1` (centres unmarked) [Compound 3, 2-hydroxyethyl 2-(4-isobutylphenyl)propanoate]: the IC50 in assay [1] (setting [5]) was under 1 mM. Moreover, the EC50 in assay [2] (setting [7]) is 10.5 mM; in assay [2] (setting [8]), 10.4 mM; in assay [2] (setting [9]), 10.4 mM; in assay [3] (setting [10]), 7.58 mM; in assay [3] (setting [12]) it was 7.48 mM; in assay [3] (setting [11]), 7.39 mM.
Take `O=C(OCCOC(=O)c1ccccc1O)c1ccccc1O` [Compound 13, Ethane-1,2-diyl bis(2-hydroxybenzoate)]: the half-inhibitory concentration (IC50) in assay [1] (setting [4]) was 0.9 mM. For the same molecule, the EC50 in assay [2] (setting [7]) turned out to be 6.61 mM; in assay [2] (setting [9]), 6.46 mM; in assay [3] (setting [10]), 6.73 mM; in assay [3] (setting [12]), 6.69 mM; in assay [3] (setting [11]) it was 6.66 mM.
As for `O=C(O)/C=C/c1ccccc1` [Compound 11, cinnamic acid, reference compound], the IC50 in assay [1] (setting [4]) came out at 0.34 mM. In addition, the EC50 in assay [2] (setting [7]) amounted to 11.1 mM; in assay [2] (setting [8]), 11 mM; in assay [2] (setting [9]), 10.9 mM; in assay [3] (setting [10]), 13.8 mM; in assay [3] (setting [12]), 13.7 mM; in assay [3] (setting [11]) it was 13.6 mM.
`CC(C)Cc1ccc(C(C)C(=O)O)cc1` (centres unmarked) [Compound 1, ibuprofen, reference compound]: the IC50 in assay [1] (setting [4]) was determined as 0.33 mM. In addition, the EC50 was 9.81 mM in assay [2] (setting [7]); 10 mM in assay [2] (setting [8]); 10.2 mM in assay [2] (setting [9]); 12.9 mM in assay [3] (setting [10]); 13 mM in assay [3] (setting [12]); 13.2 mM in assay [3] (setting [11]).
Take `CC(C)Cc1ccc(C(=O)OCCOC(=O)C(C)c2ccc(CC(C)C)cc2)cc1` (centres unmarked) [Compound 2, 2-((2-(4-isobutylphenyl)propanoyl)oxy)ethyl 4-isobutylbenzoate]: the IC50 was 0.57 mM in assay [1] (setting [4]) and under 1 mM in assay [1] (setting [5]). Further, the EC50 in assay [2] (setting [7]) amounted to 5.05 mM; in assay [2] (setting [8]), 4.92 mM; in assay [2] (setting [9]), 4.78 mM; in assay [3] (setting [10]), 6.79 mM; in assay [3] (setting [12]), 6.79 mM; in assay [3] (setting [11]) it was 6.79 mM.
Consider `CCCCCCCCCCCC(=O)OCCOC(=O)c1ccccc1O` [DEW4a], for which the results for the IC50 in assay [1] (setting [4]) and in assay [1] (setting [6]) were over 1 mM and 1.36 mM, respectively. Further, the EC50 is 5.82 mM in assay [2] (setting [7]); 5.79 mM in assay [2] (setting [8]); 5.77 mM in assay [2] (setting [9]); 8.06 mM in assay [3] (setting [10]); 8.03 mM in assay [3] (setting [12]); 8 mM in assay [3] (setting [11]).
Take `O=C(OCCO)c1ccccc1O` [Compound 7, 2-hydroxyethyl 2-hydroxybenzoate]: the IC50 in assay [1] (setting [4]) was 0.05 mM. The EC50 was found to be 12.2 mM in assay [2] (setting [7]); 12.1 mM in assay [2] (setting [8]); 12.1 mM in assay [2] (setting [9]); 11 mM in assay [3] (setting [10]); 10.9 mM in assay [3] (setting [12]); 10.9 mM in assay [3] (setting [11]).
On to `O=C(/C=C/c1ccccc1)OCCOC(=O)c1ccccc1O` [Compound 12, (E)-2-(cinnamoyloxy)ethyl 2-hydroxybenzoate], for which the IC50 in assay [1] (setting [4]) was 0.17 mM. Further, the EC50 was 8.63 mM in assay [2] (setting [7]); 8.68 mM in assay [2] (setting [8]); 8.73 mM in assay [2] (setting [9]); 6.21 mM in assay [3] (setting [10]); 6.21 mM in assay [3] (setting [12]); 6.22 mM in assay [3] (setting [11]).
With `CCCCCCCCCCCC(=O)OCCOC(=O)C(C)c1ccc(CC(C)C)cc1` (centres unmarked) [Compound 5a, 2-((2-(4-isobutylphenyl)propanoyl)oxy)ethyl dodecanoate], the IC50 in assay [1] (setting [4]) is at most 0.05 mM; in assay [1] (setting [5]) it was under 1 mM; in assay [1] (setting [6]) it was 0.05 mM. The EC50 in assay [2] (setting [7]) worked out at 3.5 mM; in assay [2] (setting [8]) it was 3.52 mM; in assay [2] (setting [9]), 3.53 mM; in assay [3] (setting [10]) it was 4.66 mM; in assay [3] (setting [12]), 4.67 mM; in assay [3] (setting [11]) it was 4.67 mM.
